Measured values published in US7985731B2, “Sugar chain added GLP-1 peptide” (Otsuka Chemical Holdings Co., Ltd., priority 2007, dated 2011).
Ends that are not written are not given here. asialo oligosaccharide = not defined here

Key:
[1] = Test Example 1: stability in plasma; type: in vitro ADME; settings: PBS 70% / plasma 30%, 37° C., sampled 10 to 1440 minutes
Description: 0.1 mg of the peptide prepared in Example 7 or Comparative Example 1 was placed in an Eppendorf tube, and PBS (0.08 ml, 70% of the whole amount) and plasma (0.034 ml, 30% of the whole amount) were sequentially placed therein to bring about the solution amount to 0.114 ml in total. The mixture was allowed to react at 37° C.
The time when plasma was added to the reaction vessel was defined as 0 min. 0.01 ml aliquots were taken from the reaction solution on 10, 30, 60, 180, 360, 720 and 1440 minutes for sampling.
Each sampled reaction solution was mixed with 0.02 ml of 10% trifluoroacetic acid solution prepared in advance in an Eppendorf tube and then centrifuged. A 0.025 ml aliquot of the supernatant of the solution mixture was injected into HPLC to analyze the composition of the reaction solution (reaction monitoring conditions: Shiseido CAPCELL PAK C18, UG120, 250×4.6 mm, developing solvent A: 0.1% aqueous TFA solution, B: 0.1% TFA acetonitrile: water=90:10, gradient A:B=95:5→5:95, 15 min, flow rate: 0.7 ml/min). The results are shown in FIGS. 5 (Example 7) and 6 (Comparative Example 1).

[2] = test system: type-2 diabetes model mice (BKS.Cg-+Lepr db/+Lepr db/Jcl); experiment: Test Example 2: effect of lowering blood-sugar levels in db/db mice-1; type: in vivo; settings: 9 nmol/kg intraperitoneal, 8-week-old male db/db mice, 0-180 minutes
Description: The peptide prepared in each of Examples 1 to 5 or Comparative Example 1 was intraperitoneally administered as the same sample at a dose of […] of body weight (sample concentration: 9 nmol/kg of body weight) to each of three 8-week-old male type-2 diabetes model mice (BKS.Cg−+Lepr^db/Lepr^db/Jcl*). Specifically, the peptide in a PBS solution (9 nmol/10 ml) was intraperitoneally administered at a dose of 10 ml/kg to the BKS.Cg−+Lepr^db/+Lepr^db/Jcl mice (8 week old, male). 0, 30, 60, 90, 120 and 180 minutes after the administration, 0.03 ml of peripheral blood from the retro-orbital venous plexus was collected. The obtained blood was diluted with PBS to 0.3 ml in total, and the solution was centrifuged to separate plasma and hemocyte components. Then, only the plasma component was transferred to an Eppendorf tube separately prepared and refrigerated. A glucose concentration in plasma was measured in accordance with Glucose CII-Test Wako using an absorptiometer. The results were obtained by statistical processing.

C57BL/6JJcl mice = experiment: Test Example 7: Oral Glucose Tolerance Test (OGTT); type: in vivo; settings: for effect of suppressing rise in blood-sugar levels in OGTT: 9 nmol/kg intraperitoneal 30 minutes before glucose 1 mg/g oral
How it was run: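 Overnight-fasted mice received oral glucose 1 mg/g 30 minutes after treatment. Orbital blood taken before and at 30, 60, 120 minutes post-glucose. Blood glucose measured by glucometer.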

[3] = test system: db/db (BKS.Cg-+Lepr db/+Lepr db/Jcl) mice; experiment: Test Example 8: effect of lowering blood-sugar levels in diabetes model mice; type: in vivo; settings: 9 nmol/kg intraperitoneal; for effect of lowering blood-sugar levels in db/db mice: 10-week-old male mice
Description: The oligosaccharide chain added GLP-1 peptide prepared in Example 2, 3, 4, 21 or 23 or the GLP-1 prepared in Comparative Example 1 in a PBS solution (9 nmol/10 ml) was intraperitoneally administered at a dose of 10 ml/kg to BKS.Cg−+Lepr^db/+Lepr^db/Jcl mice (10 week old, male). Blood was collected from the orbits before the compound administration and 30 minutes, 60 minutes, 120 minutes, 180 minutes and 300 minutes after the compound administration. Blood-sugar levels were measured using ACCU-CHEK Aviva (Roche Diagnostics).
The db/db (BKS.Cg−+Lepr^db/+Lepr^db/Jcl) mice serving as diabetes model mice have a mutation in a receptor of leptin which is anorexigenic/energy metabolism-accelerating hormone and develops conditions such as obesity or hyperglycemia.
Blood-sugar levels were measured over time, and their effects of lowering blood-sugar levels were compared with that of the GLP-1 without oligosaccharide chain addition of Comparative Example 1.

mouse GLP-1 receptor = molecular target: T1, mouse GLP-1 receptor (Mus musculus, UniProt O35659); experiment: Test Example 6: ability to synthesize cAMP in mouse GLP-1 receptor-expressing CHO-K1 cells; type: cell-based
T1 construct: expressed in transfected cells
T1 sequence (O35659 22-463): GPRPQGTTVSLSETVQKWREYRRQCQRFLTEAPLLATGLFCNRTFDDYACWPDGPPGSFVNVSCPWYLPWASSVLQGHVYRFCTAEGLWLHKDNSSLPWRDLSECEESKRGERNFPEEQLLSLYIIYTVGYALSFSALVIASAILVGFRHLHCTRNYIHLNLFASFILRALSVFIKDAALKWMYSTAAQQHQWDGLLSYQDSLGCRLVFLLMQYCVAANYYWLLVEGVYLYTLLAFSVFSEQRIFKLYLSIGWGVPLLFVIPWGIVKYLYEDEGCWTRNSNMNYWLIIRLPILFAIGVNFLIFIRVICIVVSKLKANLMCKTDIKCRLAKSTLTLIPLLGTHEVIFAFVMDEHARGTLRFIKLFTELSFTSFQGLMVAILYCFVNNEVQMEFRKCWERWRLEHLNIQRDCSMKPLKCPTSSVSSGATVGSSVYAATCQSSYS

Row | Compound | stability in plasma (HPLC analysis of remaining peptide) [1] | effect of lowering blood-sugar levels (glucose concentration in plasma) [2] | effect of suppressing rise in blood-sugar levels in OGTT (C57BL/6JJcl mice) | effect of lowering blood-sugar levels in db/db mice [3] | cAMP synthesis activity compared with GLP-1 (in words) (mouse GLP-1 receptor) | efficacy relative to 30Cys GLP-1-disialo and 36Cys GLP-1-disialo at the same dose in OGTT (C57BL/6JJcl mice; 0.9 nmol/kg intraperitoneal) | dose dependence of activity of suppressing rise in blood-sugar levels in OGTT (C57BL/6JJcl mice; doses 0.9 nmol/kg and 0.09 nmol/kg intraperitoneal) | durability of effect of lowering blood-sugar levels in db/db mice ([3]; up to 300 minutes)
1 | 19Asn GLP-1-asialo (HAEGTFTSDVSSN(asialo oligosaccharide)LEGQAAKEFIAWLVKGRG; reading uncertain) [Example 7, GLP-1 wherein position 19 is substituted by asialo oligosaccharide chain added Asn] | mostly remained even after 24 hours | – | – | – | – | – | – | –
2 | CC[C@H](C)[C@H](NC(=O)[C@H](Cc1ccccc1)NC(=O)[C@H](CCC(=O)O)NC(=O)[C@H](CCCCN)NC(=O)[C@H](C)NC(=O)[C@H](C)NC(=O)[C@H](CCC(N)=O)NC(=O)CNC(=O)[C@H](CCC(=O)O)NC(=O)[C@H](CC(C)C)NC(=O)[C@H](Cc1ccc(O)cc1)NC(=O)[C@H](CO)NC(=O)[C@H](CO)NC(=O)[C@@H](NC(=O)[C@H](CC(=O)O)NC(=O)[C@H](CO)NC(=O)[C@@H](NC(=O)[C@H](Cc1ccccc1)NC(=O)[C@@H](NC(=O)CNC(=O)[C@H](CCC(=O)O)NC(=O)[C@H](C)NC(=O)[C@@H](N)Cc1c[nH]cn1)[C@@H](C)O)[C@@H](C)O)C(C)C)C(=O)N[C@@H](C)C(=O)N[C@@H](Cc1c[nH]c2ccccc12)C(=O)N[C@@H](CC(C)C)C(=O)N[C@H](C(=O)N[C@@H](CCCCN)C(=O)NCC(=O)N[C@@H](CCCNC(=N)N)C(=O)NCC(=O)O)C(C)C [Comparative Example 1, GLP-1] | mostly degraded by 180 minutes after the plasma addition | hardly lowered blood-sugar levels | small effect of suppressing rise in blood-sugar levels | almost equal to those in PBS-administered mice | – | – | – | –
3 | CC[C@H](C)[C@H](NC(=O)[C@H](Cc1ccccc1)NC(=O)[C@H](CCC(=O)O)NC(=O)[C@H](CCCCN)NC(=O)[C@H](C)NC(=O)[C@H](C)NC(=O)[C@H](CCC(N)=O)NC(=O)CNC(=O)[C@H](CCC(=O)O)NC(=O)[C@H](CC(C)C)NC(=O)[C@H](Cc1ccc(O)cc1)NC(=O)[C@H](CO)NC(=O)[C@H](CO)NC(=O)[C@@H](NC(=O)[C@H](CC(=O)O)NC(=O)[C@H](CO)NC(=O)[C@@H](NC(=O)[C@H](Cc1ccccc1)NC(=O)[C@@H](NC(=O)CNC(=O)[C@H](CCC(=O)O)NC(=O)[C@H](C)NC(=O)[C@@H](N)Cc1c[nH]cn1)[C@@H](C)O)[C@@H](C)O)C(C)C)C(=O)N[C@@H](C)C(=O)N[C@@H](Cc1c[nH]c2ccccc12)C(=O)N[C@@H](CC(C)C)C(=O)N[C@H](C(=O)N[C@@H](CSCC(=O)N[C@@H]1O[C@H](CO)[C@@H](O[C@@H]2O[C@H](CO)[C@@H](O[C@@H]3O[C@H](CO[C@H]4O[C@H](CO)[C@@H](O)[C@H](O)[C@@H]4O[C@@H]4O[C@H](CO)[C@@H](O[C@@H]5O[C@H](CO[C@]6(C(=O)O)C[C@H](O)[C@@H](NC(C)=O)[C@H]([C@H](O)[C@H](O)CO)O6)[C@H](O)[C@H](O)[C@H]5O)[C@H](O)[C@H]4NC(C)=O)[C@@H](O)[C@H](O[C@H]4O[C@H](CO)[C@@H](O)[C@H](O)[C@@H]4O[C@@H]4O[C@H](CO)[C@@H](O[C@@H]5O[C@H](CO[C@]6(C(=O)O)C[C@H](O)[C@@H](NC(C)=O)[C@H]([C@H](O)[C@H](O)CO)O6)[C@H](O)[C@H](O)[C@H]5O)[C@H](O)[C@H]4NC(C)=O)[C@@H]3O)[C@H](O)[C@H]2NC(C)=O)[C@H](O)[C@H]1NC(C)=O)C(=O)NCC(=O)N[C@@H](CCCNC(=N)N)C(=O)NCC(=O)O)C(C)C [Example 23, 34Cys GLP-1-disialo] | – | – | strong effect of suppressing rise in blood-sugar levels | strong effect of lowering blood-sugar levels | activity equal to or more than that of the GLP-1 | about ½ | dose-dependent activity of suppressing rise in blood-sugar levels | effects of lowering blood-sugar levels were slightly weakened over time
